Measured values as given in US20250332173A1, “COMPOUNDS AND METHODS FOR MODULATING NUCLEIC ACID SPLICING” (REMIX THERAPEUTICS INC., priority 2021, published 2025).

Columns and labels:
MYB = test: HiBiT protein abundance assay, MYB HiBiT K562 cell line; format: cell-based, human; settings: HiBiT K562 cell line, 24 hours, top dose 10 μM; read-out: Effect on protein abundance, MYB (IC50 category)
Procedure, shortened: (§1)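 K562 knock-in lines with endogenous HiBiT-tagged target, 10,000 cells/well in IMDM + FBS, treated 24 h at 37° C with 10-point 3-fold dilutions (top 10 μM final; DMSO ≤0.25%). Lytic Nano-Glo HiBiT luminescence normalized to untagged K562 baseline and DMSO controls; IC50 = concentration giving 50% abundance via four-parameter fit.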

HTT = test: HiBiT protein abundance assay, HTT HiBiT K562 cell line; format: cell-based, human; settings: HiBiT K562 cell line, 24 hours, top dose 10 μM; read-out: Effect on protein abundance, HTT (IC50 category)
Procedure, shortened: as §1

[1] = test system: K562 (human chronic myelogenous leukemia) cells; test: Cell Titer Glo 2.0 cell viability assay; format: cell-based; settings: Homo sapiens, K562, 72 h, K562 cells, 72 hours, Cell Titer Glo 2.0; read-out: K562 GI50
Target C = test: HiBiT protein abundance assay, Target C (Promega Nano-Glo HiBiT Lytic Detection System, knock-in K562 cell line); format: cell-based, human; settings: Homo sapiens, K562, 24 h, HiBiT K562 cell line, 24 hours, top dose 10 μM; read-out: Effect on protein abundance, Target C (IC50 category)
Procedure, shortened: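 Knock-in K562 cells carrying HiBiT-tagged Target C, 10,000 per well, treated 24 h at 37 °C with 10-point threefold dilutions (top 10 μM final, ≤0.25% DMSO). Lytic HiBiT luminescence read; response normalised to unmodified K562 and DMSO controls, four-parameter fit interpolated at 50% for IC50.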

Row | SMILES | IC50 (MYB) [nM] | IC50 (HTT) [nM] | GI50 [1] [nM] | IC50 (Target C) [nM]
1 | Cc1cn2cc(-c3cc(O)c4c(=O)n(C5CCNC5)ccc4c3)cc(C#N)c2n1 (centres unmarked) [Compound 433, 6-(8-hydroxy-1-oxo-2-(pyrrolidin-3-yl)-1,2-dihydroisoquinolin-6-yl)-2-methylimidazo[1,2-a]pyridine-8-carbonitrile] | 1000 to 10000 | > 10000 | 1000 to 10000 | > 10000
2 | Cc1cn2cc(-c3cc(F)c4c(=O)n(C5CCNC5)ccc4c3)cc(C#N)c2n1 (centres unmarked) [Compound 434, 6-[8-fluoro-1-oxo-2-(pyrrolidin-3-yl)isoquinolin-6-yl]-2-methylimidazo[1,2-a]pyridine-8-carbonitrile] | 1000 to 10000 | > 10000 | 1000 to 10000 | > 10000
3 | Cc1cn2cc(-c3ccc4c(=O)n(C5CCNC5)cc(C)c4c3)cc(C#N)c2n1 (centres unmarked) [Compound 442, 2-methyl-6-[4-methyl-1-oxo-2-(pyrrolidin-3-yl)isoquinolin-6-yl]imidazo[1,2-a]pyridine-8-carbonitrile] | > 10000 | > 10000 | > 10000 | > 10000
4 | Cc1cn2nc(-c3cc(F)c4c(=O)n([C@H]5CCNC6(CC6)C5)ncc4c3)cc(C)c2n1 [Compound 447] | < 100 | < 100 | 100 to 1000 | < 100
5 | COc1cc2c(=O)n(C3CCNCC3)ccc2cc1-c1cc(C)c2nc(C)cn2n1 [Compound 449, 6-{2,8-dimethylimidazo[1,2-b]pyridazin-6-yl}-7-methoxy-2-(piperidin-4-yl)isoquinolin-1-one] | > 10000 | > 10000 | > 10000 | > 10000
6 | Cc1cn2cc(-c3ccc4c(=O)n([C@@H]5CCNC5)cc(C)c4c3)cc(F)c2n1 [Compound 452, (R)-6-(8-fluoro-2-methylimidazo[1,2-a]pyridin-6-yl)-4-methyl-2-(pyrrolidin-3-yl)isoquinolin-1(2H)-one] | 1000 to 10000 | > 10000 | 1000 to 10000 | > 10000
7 | Cc1cn2cc(-c3ccc4c(=O)n([C@H]5CCNC5)cc(C)c4c3)cc(C#N)c2n1 [Compound 456, (S)-2-methyl-6-(4-methyl-1-oxo-2-(pyrrolidin-3-yl)-1,2-dihydroisoquinolin-6-yl)imidazo[1,2-a]pyridine-8-carbonitrile] | 1000 to 10000 | > 10000 | > 10000 | > 10000
8 | Cc1cn2cc(-c3cc(F)c4c(=O)n(C5CCNCC5)cc(C)c4c3)cc(F)c2n1 [Compound 461, 8-fluoro-6-{8-fluoro-2-methylimidazo[1,2-a]pyridin-6-yl}-4-methyl-2-(piperidin-4-yl)isoquinolin-1-one] | < 100 | < 100 | < 100 | 100 to 1000
9 | Cn1cc2c(n1)CCN(c1ccc3c(=O)n(C4CCNCC4)ccc3c1)C2 [Compound 509, 6-{2-methyl-4H,6H,7H-pyrazolo[4,3-c]pyridin-5-yl}-2-(piperidin-4-yl)isoquinolin-1-one] | > 10000 | > 10000 | > 10000 | > 10000
10 | Cn1cc2nc(-c3ccc4c(=O)n(C5CCNC6(CC6)C5)ncc4c3)ccc2n1 (centres unmarked) [Compound 511] | 100 to 1000 | 100 to 1000 | 1000 to 10000 | 100 to 1000

The remaining lines, values ahead:

Row | IC50 (MYB) [nM] | IC50 (HTT) [nM] | GI50 [1] [nM] | IC50 (Target C) [nM] | SMILES
11 | < 100 | 1000 to 10000 | 1000 to 10000 | 1000 to 10000 | Cc1cn2nc(-c3cc(O)c4c(=O)n(C5CCNC5)ccc4c3)cc(C)c2n1 (centres unmarked) [Compound 432, 6-{2,8-dimethylimidazo[1,2-b]pyridazin-6-yl}-8-hydroxy-2-(pyrrolidin-3-yl)isoquinolin-1-one]
12 | < 100 | 100 to 1000 | < 100 | 100 to 1000 | Cc1cn2cc(-c3ccc4c(=O)n(C5CCNCC5)cc(C)c4c3)cc(F)c2n1 [Compound 440, 6-{8-fluoro-2-methylimidazo[1,2-a]pyridin-6-yl}-4-methyl-2-(piperidin-4-yl)isoquinolin-1-one]
13 | 1000 to 10000 | 1000 to 10000 | 1000 to 10000 | > 10000 | Cc1cn2cc(-c3ccc4c(=O)n(C5CCNC5)cc(C)c4c3)cc(F)c2n1 (centres unmarked) [Compound 441, 6-{8-fluoro-2-methylimidazo[1,2-a]pyridin-6-yl}-4-methyl-2-(pyrrolidin-3-yl)isoquinolin-1-one]
14 | < 100 | < 100 | < 100 | < 100 | Cc1cn2nc(-c3ccc4c(=O)n([C@H]5CCNC6(CC6)C5)ccc4c3)cc(C)c2n1 [Compound 445]
15 | < 100 | < 100 | 100 to 1000 | < 100 | Cc1cn2nc(-c3cc(F)c4c(=O)n([C@@H]5CCNC6(CC6)C5)ncc4c3)cc(C)c2n1 [Compound 446]
16 | < 100 | < 100 | < 100 | < 100 | Cc1cn2nc(-c3cc4ccn(C5CCNCC5)c(=O)c4cc3O)cc(C)c2n1 [Compound 448, 6-{2,8-dimethylimidazo[1,2-b]pyridazin-6-yl}-7-hydroxy-2-(piperidin-4-yl)isoquinolin-1-one]
17 | > 10000 | > 10000 | > 10000 | > 10000 | Cc1cn2c(n1)CCC(c1ccc3c(=O)n(C4CCNCC4)ccc3c1)C2 (centres unmarked) [Compound 453, 6-{2-methyl-5H,6H,7H,8H-imidazo[1,2-a]pyridin-6-yl}-2-(piperidin-4-yl)isoquinolin-1-one]
18 | > 10000 | > 10000 | > 10000 | > 10000 | Cc1cn2cc(-n3ccc4cc(N5C[C@@H](C)N[C@@H](C)C5)ccc4c3=O)nc(C)c2n1 [Compound 454, 2-{2,8-dimethylimidazo[1,2-a]pyrazin-6-yl}-6-[(3R,5S)-3,5-dimethylpiperazin-1-yl]isoquinolin-1-one]
19 | 100 to 1000 | 1000 to 10000 | 1000 to 10000 | 1000 to 10000 | Cc1cn2nc(-c3cc(O)c4c(=O)n(C5CCNC5)cc(C)c4c3)cc(C)c2n1 (centres unmarked) [Compound 462]
20 | 1000 to 10000 | 100 to 1000 | 1000 to 10000 | 1000 to 10000 | Cc1cn2cc(-c3ccc4c(=O)n(C5CCNC6(CC6)C5)ncc4c3)cc(Cl)c2n1 (centres unmarked) [Compound 510]
